Patent publication US7598269B2, “Methods and compositions for treating amyloid-related diseases” (Bellus Health (International) Limited, priority 2003, dated 2009)

How the values were obtained:
Aβ42 = biological target: T1, Aβ42 (Homo sapiens, UniProt P05067); assay: Short term treatment of TgCRND8 mice: Aβ42 levels in plasma and brain (ELISA); format: in vivo, Mouse; settings: for Aβ42 Change: plasma, TgCRND8 mice
T1 construct: from tissue; host or cells: plasma and brain homogenate of TgCRND8 transgenic mice (hAPP transgene)
T1 sequence (P05067 672-713 limits assumed): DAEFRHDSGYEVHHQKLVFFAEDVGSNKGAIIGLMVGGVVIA
Excerpt: (§1) Transgenic mice, […]8, expressing the human amyloid precursor protein (hAPP) develop a pathology resembling Alzheimer's disease. In particular, high levels of Aβ40 and Aβ42 have been documented in the plasma and the brain of these animals at 8-9 weeks of age, followed by early accumulation of amyloid plaques similar to the senile plaques observed in […]. These animals also display progressive cognitive deficits that parallel the appearance of degenerative changes. See, […], et al., J. Biol. Chem. 276, 21562-70 (2001). The short term therapeutic effect of 19 compounds of the invention was studied. […] The following abbreviations are used to designate these animals from the 3rd and 4th generation backcross in the present protocol: TgCRND8-2.B6C3F1 (N3); TgCRND8-2.B6C3F1 (N4). Baseline animals (Group 1) consisted of naive TgCRND8-2.B6C3F1(N3) at 11±1 weeks of age. These mice were used to determine the Aβ levels in the plasma and brain of naive transgenic animals at the initiation of treatment. […] At the end of the treatment periods, plasma and perfused brains were collected for quantification of Aβ levels. […] Plasma samples were immediately frozen and stored at -80° C. pending analysis. The brains were removed, frozen, and stored at -80° C. awaiting analysis. […] Samples were spun at 15000 g for 20 minutes and the supernatants were transferred to fresh tubes. […] The tubes were vortexed for 30 seconds and frozen at -80° C. […] Samples were thawed at room temperature, sonicated at 80° C. for 15 minutes and frozen again. This cycle was repeated 3 times to ensure homogeneity and samples were returned to -80° C. pending analysis. Aβ levels were evaluated in plasma and brain samples by ELISA using Human Aβ40 and Aβ42 Fluorometric ELISA kits from Biosource (Cat. […] In short, samples were thawed at room temperature, sonicated for 5 minutes at 80° C. (sonication for brain homogenates; no sonication for plasma samples) and kept on ice. Aβ peptides were captured using 100 μl of the diluted samples to the plate and incubated without shaking at 4° C. overnight. The samples were aspirated and the wells were rinsed 4 times with wash buffer obtained from the Biosource ELISA kit. The anti-Aβ40 or anti-Aβ42 rabbit polyclonal antiserum (specific for the Aβ40 or Aβ42 peptide) was added (100 μl) and the plate was incubated at room temperature for 2 hours with shaking. The wells were aspirated and washed 4 times before adding 100 μl of the alkaline phosphatase labeled anti-rabbit antibody and incubating at room temperature for 2 hours with shaking. The plates were then rinsed 5 times and the fluorescent substrate (100 μl) was added to the plate. The plate was incubated for 35 minutes at room temperature and the plate was read using a titer plate reader at an excitation wavelength of 460 nm and emission at 560 nm. Compounds were scored based on their ability to modulate levels of Aβ peptides in the plasma and the cerebral soluble/insoluble levels in the brain. Levels of Aβ observed in the plasma and brain of treated animals were normalized using values from vehicle-treated (water) or methylcellulose-treated control groups and ranked according to the strength of the pharmacological effect. Increases in the levels of Aβ peptides are indicated using “+” symbols, while decreases in the levels of Aβ peptides are indicated using “-” symbols. The strongest effects are recorded as “+++” or “---” while the weakest are shown as “+” or “-”.

Aβ40 = biological target: T2, Aβ40 (Homo sapiens, UniProt P05067); assay: Short term treatment of TgCRND8 mice: Aβ40 levels in plasma and brain (ELISA); format: in vivo, Mouse; settings: for Aβ40 Change: plasma, TgCRND8 mice
T2 construct: from tissue; host or cells: plasma and brain homogenate of TgCRND8 transgenic mice (hAPP transgene)
T2 sequence (P05067 672-711 limits assumed): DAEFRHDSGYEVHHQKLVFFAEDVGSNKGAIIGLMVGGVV
Excerpt: as §1

[1] = brain homogenate, methylcellulose group, Day 14, 250 mg/kg daily oral
[2] = brain homogenate, methylcellulose group, Day 28, 250 mg/kg daily oral
[3] = brain homogenate, vehicle group, Day 14, 250 mg/kg daily subcutaneous
[4] = brain homogenate, vehicle group, Day 28, 250 mg/kg daily subcutaneous
[5] = vehicle (water) group, Day 28, 250 mg/kg daily subcutaneous
[6] = vehicle (water) group, Day 14, 250 mg/kg daily subcutaneous
[7] = methylcellulose group, Day 14, 250 mg/kg daily oral
[8] = methylcellulose group, Day 28, 250 mg/kg daily oral

Row | Structure (SMILES) | Aβ42 Change Soluble (Aβ42; [1]) | Aβ40 Change Insoluble (Aβ40; [1]) | Aβ40 Change Soluble (Aβ40; [2]) | Aβ42 Change Insoluble (Aβ42; [3]) | Aβ42 Change Soluble (Aβ42; [3]) | Aβ42 Change Insoluble (Aβ42; [4]) | Aβ42 Change Soluble (Aβ42; [4]) | Aβ42 Change (Aβ42; [5]) | Aβ40 Change Soluble (Aβ40; [3]) | Aβ40 Change Insoluble (Aβ40; [4]) | Aβ40 Change (Aβ40; [5]) | Aβ42 Change (Aβ42; [6]) | Aβ40 Change Soluble (Aβ40; [4]) | Aβ40 Change (Aβ40; [6]) | Aβ40 Change Insoluble (Aβ40; [3]) | other results
1 | O=S(=O)(O)CCCNCCc1c[nH]c2ccccc12 [Compound BT, 3-{[2-(3-indolyl)ethyl]-amino}-1-propanesulfonic acid] | ++ (increases of 40 to 69% are scored as “++”) | +++ (increases of 70% or higher are scored as “+++”) | −− (decreases of 20 to 38% are scored as “−−”) |  |  |  |  |  |  |  |  |  |  |  |  | Aβ42 Change Soluble (Aβ42; [2]): ++ (increases of 40 to 69% are scored as “++”); Aβ40 Change Insoluble (Aβ40; [2]): ++ (increases of 40 to 69% are scored as “++”)
2 | CC[C@@H](CO)NCCCS(=O)(=O)O [CU, (S)-3-(1-hydroxy-2-butylamino)-1-propanesulfonic acid] |  |  |  | − (Decreases in the levels of Aβ of 5 to 19% are scored as “−”) | ++ (increases of 40 to 69% are scored as “++”) | +++ (increases of 70% or higher are scored as “+++”) | ++ (increases of 40 to 69% are scored as “++”) | + (increases in the levels of Aβ (relative to untreated control) of 20 to 39% are scored as “+”) | + (increases in the levels of Aβ (relative to untreated control) of 20 to 39% are scored as “+”) | +++ (increases of 70% or higher are scored as “+++”) | + (increases in the levels of Aβ (relative to untreated control) of 20 to 39% are scored as “+”) |  |  |  |  | 
3 | NCCSS(=O)(=O)O [BE] |  |  |  | +++ (increases of 70% or higher are scored as “+++”) | +++ (increases of 70% or higher are scored as “+++”) | +++ (increases of 70% or higher are scored as “+++”) | +++ (increases of 70% or higher are scored as “+++”) | +++ (increases of 70% or higher are scored as “+++”) | + (increases in the levels of Aβ (relative to untreated control) of 20 to 39% are scored as “+”) | − (Decreases in the levels of Aβ of 5 to 19% are scored as “−”) | +++ (increases of 70% or higher are scored as “+++”) | +++ (increases of 70% or higher are scored as “+++”) | + (increases in the levels of Aβ (relative to untreated control) of 20 to 39% are scored as “+”) | ++ (increases of 40 to 69% are scored as “++”) |  | 
4 | CCCC(CO)NCCCS(=O)(=O)O (racemic) [Compound CA, 3-[(dl)-1-hydroxy-2-pentyl]amino-1-propane-sulfonic acid] |  |  |  | −− (decreases of 20 to 38% are scored as “−−”) |  | + (increases in the levels of Aβ (relative to untreated control) of 20 to 39% are scored as “+”) | + (increases in the levels of Aβ (relative to untreated control) of 20 to 39% are scored as “+”) | +++ (increases of 70% or higher are scored as “+++”) | + (increases in the levels of Aβ (relative to untreated control) of 20 to 39% are scored as “+”) | ++ (increases of 40 to 69% are scored as “++”) | +++ (increases of 70% or higher are scored as “+++”) | +++ (increases of 70% or higher are scored as “+++”) | + (increases in the levels of Aβ (relative to untreated control) of 20 to 39% are scored as “+”) | +++ (increases of 70% or higher are scored as “+++”) | − (Decreases in the levels of Aβ of 5 to 19% are scored as “−”) | 
5 | CCCCCNCCCS(=O)(=O)O [CF, 3-pentylamino-1-propanesulfonic acid] |  |  |  | −− (decreases of 20 to 38% are scored as “−−”) | − (Decreases in the levels of Aβ of 5 to 19% are scored as “−”) | + (increases in the levels of Aβ (relative to untreated control) of 20 to 39% are scored as “+”) |  |  | ++ (increases of 40 to 69% are scored as “++”) |  |  |  | + (increases in the levels of Aβ (relative to untreated control) of 20 to 39% are scored as “+”) |  | − (Decreases in the levels of Aβ of 5 to 19% are scored as “−”) | 
6 | CCCCCCCNCCCS(=O)(=O)O [CX, 3-heptylamino-1-propane-sulfonic acid] |  |  |  | − (Decreases in the levels of Aβ of 5 to 19% are scored as “−”) | + (increases in the levels of Aβ (relative to untreated control) of 20 to 39% are scored as “+”) | +++ (increases of 70% or higher are scored as “+++”) | ++ (increases of 40 to 69% are scored as “++”) | + (increases in the levels of Aβ (relative to untreated control) of 20 to 39% are scored as “+”) | − (Decreases in the levels of Aβ of 5 to 19% are scored as “−”) | + (increases in the levels of Aβ (relative to untreated control) of 20 to 39% are scored as “+”) | ++ (increases of 40 to 69% are scored as “++”) | ++ (increases of 40 to 69% are scored as “++”) |  | ++ (increases of 40 to 69% are scored as “++”) | − (Decreases in the levels of Aβ of 5 to 19% are scored as “−”) | 
7 | CCCCCCCCCNCCCS(=O)(=O)O [DA, 3-nonylamino-1-propanesulfonic acid] | −− (decreases of 20 to 38% are scored as “−−”) | −−− (decreases of 39% or more are scored as “−−−”) | −− (decreases of 20 to 38% are scored as “−−”) |  |  |  |  |  |  |  |  |  |  |  |  | Aβ42 Change Insoluble (Aβ42; [1]): −− (decreases of 20 to 38% are scored as “−−”); Aβ42 Change Insoluble (Aβ42; [2]): −− (decreases of 20 to 38% are scored as “−−”); Aβ42 Change (Aβ42; [7]): + (increases in the levels of Aβ (relative to untreated control) of 20 to 39% are scored as “+”); Aβ42 Change (Aβ42; [8]): + (increases in the levels of Aβ (relative to untreated control) of 20 to 39% are scored as “+”); Aβ40 Change Soluble (Aβ40; [1]): − (Decreases in the levels of Aβ of 5 to 19% are scored as “−”); Aβ40 Change Insoluble (Aβ40; [2]): −− (decreases of 20 to 38% are scored as “−−”)
8 | CCCCCCCCNCCCS(=O)(=O)O [CZ, 3-octylamino-1-propanesulfonic acid] | −−− (decreases of 39% or more are scored as “−−−”) | −− (decreases of 20 to 38% are scored as “−−”) | − (Decreases in the levels of Aβ of 5 to 19% are scored as “−”) |  |  |  |  |  |  |  |  |  |  |  |  | Aβ42 Change Insoluble (Aβ42; [1]): −−− (decreases of 39% or more are scored as “−−−”); Aβ42 Change Insoluble (Aβ42; [2]): −− (decreases of 20 to 38% are scored as “−−”); Aβ42 Change Soluble (Aβ42; [2]): − (Decreases in the levels of Aβ of 5 to 19% are scored as “−”); Aβ42 Change (Aβ42; [7]): − (Decreases in the levels of Aβ of 5 to 19% are scored as “−”); Aβ42 Change (Aβ42; [8]): − (Decreases in the levels of Aβ of 5 to 19% are scored as “−”); Aβ40 Change Soluble (Aβ40; [1]): − (Decreases in the levels of Aβ of 5 to 19% are scored as “−”); Aβ40 Change (Aβ40; [7]): − (Decreases in the levels of Aβ of 5 to 19% are scored as “−”)
9 | CC(CO)NCCCS(=O)(=O)O (centres unmarked) [CW, 3-(1-hydroxy-2-propylamino)-1-propanesulfonic acid] |  |  |  |  |  |  |  | + (increases in the levels of Aβ (relative to untreated control) of 20 to 39% are scored as “+”) |  |  | ++ (increases of 40 to 69% are scored as “++”) | ++ (increases of 40 to 69% are scored as “++”) |  | ++ (increases of 40 to 69% are scored as “++”) |  | Aβ42 Change (total levels) (Aβ42; brain homogenate, vehicle group, Day 28, total Aβ42, soluble and insoluble not measured independently): ++ (increases of 40 to 69% are scored as “++”); Aβ40 Change (total levels) (Aβ40; brain homogenate, vehicle group, Day 28, total Aβ40, soluble and insoluble not measured independently): + (increases in the levels of Aβ (relative to untreated control) of 20 to 39% are scored as “+”)
